# Results: patent US20250170102A1, “PHARMACEUTICAL COMPOSITION FOR INHIBITING FIBROSIS IN ORGANS” (NAGASAKI UNIVERSITY, priority 2022, published 2025)
# Tests used:
# [1] = system: partial inferior vena cava ligation model mice (liver fibrosis); experiment: Partial inferior vena cava ligation model mice with low-dose losartan treatment; assay type: in vivo, C57BL/6 mice
# From the text: C57BL/6 mice (10-week-old, CLEA) were used. All animal experiments were approved by the Institutional Animal Care and Use Committee of Nagasaki University, and carried out in accordance with the institutional guidelines.
# IVC was separated and a small tube (0.9 mm diameter) was placed along with the anterior surface of IVC ((B) in FIG. 1). The tube was tightly ligated together with the IVC ((C) in FIG. 1), and immediately after that, the tube was gently removed ((D) in FIG. 1). The abdomen was then closed with a suture of the peritoneal muscle/fascia followed by closure of the skin. Removing the 0.9 mm diameter tube from IVC ligation was expected to reduce the cross-sectional area of IVC by about 80% based on Simonetto et al.
# After all procedures, mice were divided into Losartan group (n=6), IVCL group (n=6) and Sham group (n=6). Losartan group was given losartan (FUJIFILM Wako
# Pure Chemical Corporation) in their drinking water at a final concentration of 2.3 mg/L, which providing an estimated daily dose of 0.5 mg/kg. IVCL group was given drinking water without addition of any drug. Treatment was continued until the cessation of the experiments. Sham group received a sham operation including all above steps with the exception of partial IVC ligation, and was given drinking water without addition of any drug.
# Mice were euthanized 8 weeks postoperatively. Prior to sacrifice, the body weight was measured, and whole blood was collected from IVC and serum was separated. The levels of serum ALT and AST were measured. The suprahepatic IVC was then transected and the liver was perfused with PBS through the portal vein to remove circulating blood and fibrinogen. The spleen and liver were harvested and weighed, and the spleen/body and liver/body weight ratios were calculated. Liver tissues were fixed in 4% paraformaldehyde and embedded into paraffin block. Tissue sections of about 5 um thickness were used for histological analysis.
# Liver tissue sections were deparaffinized and rehydrated. Masson's trichrome staining was performed using Trichrome Stain (Masson) Kit (Sigma-Aldrich) according to the manufacturer's instructions, and then observed under an optical microscope (IX71, Olympus).
# Immunohistochemistry analysis on the liver tissues was performed to understand the relevant mechanism. Briefly, liver tissue sections were blocked with 10% bovine serum albumin, and then incubated with primary antibodies (Table 1) overnight at 4°° C., followed by incubation with secondary antibodies (Table 2) for 1 hour at room temperature in the dark. Sections were then mounted with medium containing DAPI. Apoptotic cells were detected by the usage of TUNEL staining kit (Abcam, #ab66108) according to the manufacturer's instructions. Briefly, sections were incubated with DNA labeling solution at 37° C. for 60 min, followed by the addition of PI/RNase A solution for 30 min. Immunofluorescences of stained liver tissues were detected using a fluorescence microscope (FV10i, Olympus). For each staining, at least 10 images were taken from randomly selected fields at 60× magnification, and the mean fluorescence intensity was measured by ImageJ software.
# All the results were presented as mean±SD. Statistical significance was determined by one-way analysis of variance (ANOVA) followed by Turkey's test. P value <0.05 was accepted as significant. GraphPad Prism 8 software was used for statistical analysis.
# [2] = system: human hepatic stellate cells (HSCs); experiment: Ex vivo hydrostatic pressure loading test in human HSCs; assay type: cell-based; settings: 10 nM losartan, 50 mmHg hydrostatic pressure 24 hours
# Experimental: Primary human HSCs were purchased from ScienCell Research Laboratories. Cells were expanded by using stellate cell medium (ScienCell Research Laboratories) in a humidified incubator under 5% CO2 and 95% air at 37° C. The third passaged cells were used for the following experiments. A pneumatic pressurizing system (Strex. Inc) was used to induce hydrostatic pressure. Briefly, HSCs were seeded in 60-mm diameter culture dishes (5×10^4 cells/dish) and 4-well culture chamber slides (2×10^4 cells/well). Cells were incubated for 3 days to form about 70% confluent, and then half of the culture dishes and slides were randomly selected to be loaded by 50 mmHg hydrostatic pressure for 24 hours, with or without the addition of 10 nM losartan in medium. The inventors used 50 mmHg for experiments based on their preliminary experiments and a previous report (Yoshino et al., Commun Biol 3:152, 2020, Chen et al., Int J Biol Sci 15:2509-2521, 2019). As controls, non-hydrostatic pressure-loaded groups were provided for each of Losartan addition group and non-Losartan addition group. RT-qPCR was performed to evaluate the expression of RHOA, ROCK1, ROCK2, ACTA2, TGFB1, and COL1A1. Briefly, total RNA was isolated from HSCs using Quick-RNA MicoroPrep Kit, and 1.25 μg of RNA was reverse-transcribed using SuperScript VILO cDNA Synthesis Kit (Thermo Fisher Scientific). Quantitative PCR was carried out with SYBR Green real-time PCR Master Mix (Toyobo). The reactions were performed on a CFX96 real-time PCR System (BIO-RAD). The primer sequences are shown below. GAPDH was used for normalization. HSCs were fixed in 4% paraformaldehyde before blocked by 10% bovine serum albumin. After overnight incubation with the primary antibodies, cells were incubated with secondary antibodies for 1 hour at room temperature, and then mounted with medium containing DAPI. F-actin fibers were stained with TRITC-conjugated phalloidin in mounting medium. Immunofluorescences of stained cells were detected using a fluorescence microscope (FV10i, Olympus). For each staining, 10 images were taken from randomly selected fields at 60× magnification, and the mean fluorescence intensity was measured by ImageJ software. Statistical analysis was performed in the same manner as in Example 1.
# [3] = system: UUO-induced renal fibrosis model mice; experiment: Unilateral ureteral obstruction (UUO)-induced renal fibrosis model mice with losartan treatment; assay type: in vivo, C57BL/6 mice; settings: for body weight: prior to UUO surgery and 1 and 2 weeks post-surgery, among all groups; for level of BUN in serum / level of CRE in serum / swelling of the left kidneys (hydronephrosis) / fibrosis area of kidney (Masson's trichrome staining): 2 weeks after UUO surgery; for level of BUN in serum / level of CRE in serum: compared to control group; for swelling of the left kidneys (hydronephrosis): versus control group; for fibrosis area of kidney (Masson's trichrome staining): versus left kidney of control group (UUO)
# From the text: C57BL/6 mice (8-week-old, CLEA) were used. The abdomen of mouse was opened under general anesthesia and the left ureter was ligated. The right ureter was not ligated and the right kidney served as a control. The surgical wound was then closed with a single-layer suture of the peritoneum, muscular layer and skin followed by closure of the surgical wound. UUO-induced renal fibrosis model is known to manifest the symptoms of hydronephrosis in the ligated kidney and then develop interstitial fibrosis caused by interstitial deposition of type IV collagen as well as apoptosis of tubular cells at day 3 post-UUO surgery. Post-UUO surgery mice were divided into three groups: low-dose losartan group (1 mg/kg, n=3), high-dose losartan group (3 mg/kg, n=3) and no losartan administration group (n=3). Low-dose losartan group was given losartan (FUJIFILM Wako Pure Chemical Corporation) in their drinking water at a final concentration of 4.6 mg/L, which providing an estimated daily dose of 1 mg/kg. High-dose losartan group was given losartan in their drinking water at a final concentration of 13.8 mg/L, which providing an estimated daily dose of 3 mg/kg. No losartan administration group was given drinking water without addition of losartan. Body weight was measured prior to UUO surgery and 1 and 2 weeks post-surgery. Mice were euthanized 2 weeks post-surgery. Prior to sacrifice, whole blood was collected from IVC and serum was separated. The levels of serum BUN and CRE were measured. The left and right kidneys were then harvested and photographed. Kidneys were fixed in 4% paraformaldehyde and embedded into paraffin block. Tissue sections of about 5 µm thickness were used for histological analysis. (3) Masson's trichrome staining and Hematoxylin and Eosin staining Tissue sections were deparaffinized and rehydrated. Masson's trichrome staining was performed using Trichrome Stain (Masson) Kit (Sigma-Aldrich) according to the manufacturer's instructions. Hematoxylin and Eosin (HE) staining was performed by a conventional method. Tissue specimens were observed under with an optical microscope (IX71, Olympus). Statistical analysis was performed in the same manner as in Example 1.
# [4] = system: acute lung injury caused by mechanical stimulation; settings: reported in non-patent literature 3; cited from earlier work
# [5] = system: liver fibrosis caused by non-alcoholic steatohepatitis; settings: rats; reported in non-patent literature 4; cited from earlier work
# [6] = losartan 0.5 mg/kg/day in drinking water, 8 weeks after partial IVC ligation, among Sham, IVCL and Losartan groups
# [7] = losartan 0.5 mg/kg/day in drinking water, 8 weeks after partial IVC ligation, compared with Sham group
# [8] = losartan 0.5 mg/kg/day, 8 weeks, compared to IVCL group
# [9] = losartan 0.5 mg/kg/day, 8 weeks, versus upregulation in IVCL group
# [10] = compared to pressure-loaded group without losartan
smiles,measurement,setting,value
CCCCc1nc(Cl)c(CO)n1Cc1ccc(-c2ccccc2-c2nn[nH]n2)cc1 [losartan],level of ALT in serum,[1]; [6],not significantly different
same,level of AST in serum,[1]; [6],not significantly different
same,liver/body weight ratio,[1]; [7],kept at comparable levels
same,spleen/body weight ratio,[1]; [7],kept at comparable levels
same,expression of ROCK2 in liver tissue (immunostaining),"[1]; losartan 0.5 mg/kg/day, 8 weeks, all groups",not substantially changed
same,changes in the lobular architecture of liver,[1]; [8],effectively alleviated
same,fibrotic area of liver tissue (Masson's trichrome staining),[1]; [8],significantly decreased
same,percentage of apoptotic cells in liver tissue (TUNEL staining),"[1]; losartan 0.5 mg/kg/day, 8 weeks, compared to Sham group",not significantly changed
same,expression of α-SMA in liver tissue (immunostaining signal intensity),"[1]; losartan 0.5 mg/kg/day, 8 weeks, in contrast to IVCL group",significantly reduced
same,expression of ROCK1 in liver tissue (immunostaining),[1]; [9],significantly reduced
same,expression of RhoA in liver tissue (immunostaining),[1]; [9],significantly reduced
same,expression of p-MLC2 in liver tissue (immunostaining),[1]; [9],effectively attenuated
same,expression of ROCK2 (immunohistochemistry),[2],no significant change
same,expression of ROCK2 gene (RT-qPCR),[2],no significant change
same,formation of actin stress fibers (phalloidin staining for F-actin),[2],effectively reduced
same,expression of ACTA2 gene (RT-qPCR),[2]; [10],significantly decreased
same,expression of AT1R gene (RT-qPCR),[2]; [10],significantly decreased
same,expression of AT1R in the cytoplasm (immunohistochemistry),[2]; [10],significantly decreased
same,expression of AT1R in the nucleus (immunohistochemistry),[2]; [10],significantly decreased
same,expression of COL1A1 gene (RT-qPCR),[2]; [10],significantly decreased
same,expression of ROCK1 (immunohistochemistry),[2]; [10],significantly decreased
same,expression of ROCK1 gene (RT-qPCR),[2]; [10],significantly decreased
same,expression of RhoA (immunohistochemistry),[2]; [10],significantly decreased
same,expression of RhoA gene (RT-qPCR),[2]; [10],significantly decreased
same,expression of TGF-β1 (immunohistochemistry),[2]; [10],significantly decreased
same,expression of TGFB1 gene (RT-qPCR),[2]; [10],significantly decreased
same,expression of p-MLC2 (immunohistochemistry),[2]; [10],significantly decreased
same,expression of type 1 collagen (immunohistochemistry),[2]; [10],significantly decreased
same,expression of α-SMA (immunohistochemistry),[2]; [10],significantly decreased
same,body weight,[3]; high-dose losartan 3 mg/kg/day in drinking water,No significant change
same,level of BUN in serum,[3]; high-dose losartan 3 mg/kg/day,significantly decreased
same,level of CRE in serum,[3]; high-dose losartan 3 mg/kg/day,significantly decreased
same,swelling of the left kidneys (hydronephrosis),[3]; high-dose losartan 3 mg/kg/day,significantly inhibited
same,fibrosis area of kidney (Masson's trichrome staining),[3]; high-dose losartan 3 mg/kg/day,significant decreasing
same,body weight,[3]; low-dose losartan 1 mg/kg/day in drinking water,No significant change
same,level of BUN in serum,[3]; low-dose losartan 1 mg/kg/day,significantly decreased
same,level of CRE in serum,[3]; low-dose losartan 1 mg/kg/day,significantly decreased
same,swelling of the left kidneys (hydronephrosis),[3]; low-dose losartan 1 mg/kg/day,significantly inhibited
same,fibrosis area of kidney (Masson's trichrome staining),[3]; low-dose losartan 1 mg/kg/day,significant decreasing
same,acute lung injury caused by mechanical stimulation,[4],effectively relieves
same,liver fibrosis caused by non-alcoholic steatohepatitis,[5],mitigates
